We go through ten compounds from ChEMBL document CHEMBL1201862, “PubChem BioAssay data set” (2004).

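Step 1: Grow cells in 96-well plates. Step 2: Expose to compound for 48 hours at 5 concentrations. Step 3: Interpolate endpoints linearly; if unreached, use highest concentration. The concentration for 50% growth inhibition is given as GI50.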 Active and inactive are the calls of the source. Cut-off read from the data, not from the text of the source: active = GI50 up to about 1.1 µM and inactive = higher.

Common to all, as to assay: NCI-60 cell line screen, 48 h
In test [1] the test system is 786-0.
For test [2], the system named is A498.
Test [3] relates to A549.
Test [4] relates to CCRF-CEM.
The subject of test [5] is DU-145.
The test system of test [6] is HT-29.
Test [7] has as its system LOX IMVI.
Test [8] concerns MDA-MB-231.
Test [9] relates to MDA-MB-435.
For test [10], the system named is OVCAR-5.
The subject of test [11] is RPMI-8226.
The test system of test [12] is SF-539.
In test [13] the test system is SK-MEL-28.
Test [14] concerns SK-MEL-5.
Test [15] has as its system SK-OV-3.
Test [16] deals with SN12C.
Test [17] has as its system T47D.
For test [18], the system named is U-251.
Test [19] relates to UACC-257.
The test system of test [20] is KM12.

For the compound `O=C1/C(=C\Oc2ccc(F)cc2)N2CCC1CC2`, the GI50 in [1] is > 100 µM (inactive); in [2], > 100 µM (inactive); in test [3], > 100 µM (inactive); in test [4], 34.4 µM (inactive); in [5], 0.544 µM (active); in test [6], 60.1 µM (inactive). The GI50 was 25.7 µM (inactive) in test [7]; 80.5 µM (inactive) in [8]; 40.5 µM (inactive) in [9]; > 100 µM (inactive) in test [10]; 52.1 µM (inactive) in test [11]; > 100 µM (inactive) in [12]. In addition, the GI50 in test [13] is 87.1 µM (inactive); in test [14], 63.5 µM (inactive); in [15] it was > 100 µM (inactive); in test [16] it was 94.6 µM (inactive); in test [17], 54.6 µM (inactive); in test [18], 77.1 µM (inactive). In addition, the GI50 in test [19] is 23.7 µM (inactive).
With `C/C(=N\NC(=S)NCCNC(=S)N/N=C(\C)c1ccccn1)c1ccccn1`, the GI50 was 1.26 µM (inactive) in test [1]; 4.44 µM (inactive) in [2]; 3.21 µM (inactive) in [3]; 1.28 µM (inactive) in test [4]; 2.32 µM (inactive) in test [5]; 2.07 µM (inactive) in test [6]. Moreover, the GI50 in test [20] was 3.87 µM (inactive); in test [7], 1.89 µM (inactive); in test [8], > 20.9 µM (inactive); in test [9], 3.91 µM (inactive); in [10], 3.98 µM (inactive); in [11], 1.7 µM (inactive). The GI50 in [12] was 2.36 µM (inactive); in [13], 4.75 µM (inactive); in test [14], 1.74 µM (inactive); in test [15], 4.7 µM (inactive); in [16], 1.94 µM (inactive); in test [17], 4.43 µM (inactive). Besides, the GI50 was 2.43 µM (inactive) in test [18] and 2.61 µM (inactive) in test [19].
`COc1cc(C(=O)N(C(=S)OCc2ccccn2)c2ccccc2)cc(OC)c1OC`: the GI50 was 77.8 µM (inactive) in [1]; 53.5 µM (inactive) in test [2]; 17.8 µM (inactive) in test [4]; 33.8 µM (inactive) in test [5]; 29.9 µM (inactive) in test [6]; > 100 µM (inactive) in test [20]. The GI50 is 35 µM (inactive) in test [7]; 78.5 µM (inactive) in test [8]; > 100 µM (inactive) in test [9]; 49.2 µM (inactive) in [10]; 26.8 µM (inactive) in test [11]; 26.5 µM (inactive) in [12]. Moreover, the GI50 in [13] is 92.3 µM (inactive); in [14], 35.2 µM (inactive); in [15], > 100 µM (inactive); in [16], 43 µM (inactive); in test [17], 34.9 µM (inactive); in test [18] it was > 100 µM (inactive). In [19], the GI50 is > 100 µM (inactive).
For `COc1ccc(/C(Cl)=C(\C#N)c2ccc(OC)c(OC)c2)cc1OC`, the GI50 was > 100 µM (inactive) in [1]; > 100 µM (inactive) in test [2]; > 100 µM (inactive) in test [3]; > 10 µM (inactive) in [4]; > 100 µM (inactive) in test [5]; 38.6 µM (inactive) in [6]. Moreover, the GI50 in test [7] is > 100 µM (inactive); in test [8], 35.6 µM (inactive); in test [9], 87.7 µM (inactive); in test [10], > 100 µM (inactive); in test [11] it was 15 µM (inactive); in test [12], > 100 µM (inactive). Moreover, the GI50 is 46.8 µM (inactive) in test [14]; > 100 µM (inactive) in test [16]; 34.4 µM (inactive) in test [17]; 40.1 µM (inactive) in test [18]; > 100 µM (inactive) in test [19].
In the case of `CSC(=O)/C=C1\SS/C(=C\C(=O)SC)S1`, the GI50 was 1.85 µM (inactive) in [1]; 7.89 µM (inactive) in test [2]; 6.24 µM (inactive) in test [3]; 1.88 µM (inactive) in [4]; 10.5 µM (inactive) in [5]; 2.47 µM (inactive) in [6]. Also, the GI50 in [20] was 5.05 µM (inactive); in [7], 1.55 µM (inactive); in test [8], 2.07 µM (inactive); in test [9] it was 2.29 µM (inactive); in test [10] it was 3.98 µM (inactive); in [11] it was 1.55 µM (inactive). The GI50 in test [12] is 2.72 µM (inactive); in test [13], 2.42 µM (inactive); in test [14], 2.65 µM (inactive); in [16] it was 1.82 µM (inactive); in [17] it was 5.83 µM (inactive); in test [18], 2.14 µM (inactive). In test [19], the GI50 is 3.06 µM (inactive).
On to `CCCCN1C(=O)N(c2ccc(OCC)cc2)C2N(CCCC)C1C(C)(C)C2(C)C` (centres undefined), for which the GI50 in test [1] is 21.5 µM (inactive); in [2], 35.2 µM (inactive); in test [3], 56.4 µM (inactive); in test [4] it was 16.3 µM (inactive); in [5] it was 30.1 µM (inactive); in test [6], 38.5 µM (inactive). Besides, the GI50 in [20] is 34.1 µM (inactive); in test [7], 7.71 µM (inactive); in test [8], 41.5 µM (inactive); in test [9], 20.2 µM (inactive); in [11], 14.9 µM (inactive); in test [12] it was 16.7 µM (inactive). Further, the GI50 was 32.1 µM (inactive) in [13]; 15.7 µM (inactive) in test [14]; 19.2 µM (inactive) in test [15]; 30.3 µM (inactive) in [16]; 22.4 µM (inactive) in [17]; 37 µM (inactive) in test [18]. Moreover, in test [19], the GI50 was 27.5 µM (inactive).
With `CN(C(=O)Cc1cccc(N=C=S)c1)[C@H]1CCCC[C@@H]1N1CCCC1`, the GI50 in test [1] was 15.1 µM (inactive); in test [2] it was 17.2 µM (inactive); in test [3], 16.4 µM (inactive); in test [4], 12.5 µM (inactive); in [5], 14.6 µM (inactive); in test [6], 11.5 µM (inactive). Moreover, the GI50 is 17.9 µM (inactive) in [20]; 14.5 µM (inactive) in test [7]; 16.9 µM (inactive) in [8]; 13.9 µM (inactive) in [9]; 19.2 µM (inactive) in [10]; 10.9 µM (inactive) in test [11]. Moreover, the GI50 in test [13] was 16.1 µM (inactive); in test [14], 5.73 µM (inactive); in test [15] it was 25.5 µM (inactive); in [16] it was 15.2 µM (inactive); in test [17], 11.4 µM (inactive); in [18], 17.1 µM (inactive). In test [19], the GI50 was 13.5 µM (inactive).
Regarding `CC(=O)OCC1OC(N2C(c3ccccc3)=CC(c3ccccc3)C(C#N)=C2S)C(OC(C)=O)C(OC(C)=O)C1OC(C)=O` (centres undefined), the GI50 in test [1] was 2.33 µM (inactive); in test [2], 20.2 µM (inactive); in [3], 7.62 µM (inactive); in [4], > 61.2 µM (inactive); in test [5], 26.4 µM (inactive); in test [6], 2.35 µM (inactive). Besides, the GI50 in [20] was 15.7 µM (inactive); in test [7], 4.49 µM (inactive); in test [8] it was 3.7 µM (inactive); in test [9], 4.92 µM (inactive); in test [10], 14.6 µM (inactive); in test [11] it was 13.3 µM (inactive). The GI50 was 2.56 µM (inactive) in test [12]; 8.95 µM (inactive) in [13]; 1.64 µM (inactive) in test [14]; 3.56 µM (inactive) in [16]; 3.99 µM (inactive) in [17]; 3.57 µM (inactive) in test [18]. Moreover, the GI50 in test [19] is 3.63 µM (inactive).
`Nc1nc(=O)n(C2CC(O)C(CO)O2)c2nc(-c3ccc(-c4ccccc4)cc3)cnc12` (centres undefined): the GI50 was 40.1 µM (inactive) in test [1]; > 100 µM (inactive) in [2]; > 100 µM (inactive) in test [3]; 27.6 µM (inactive) in test [4]; > 100 µM (inactive) in test [5]; > 100 µM (inactive) in [6]. In addition, the GI50 was > 10 µM (inactive) in test [20]; 38.8 µM (inactive) in [7]; 21.9 µM (inactive) in test [8]; 97.7 µM (inactive) in test [9]; > 100 µM (inactive) in test [10]; > 100 µM (inactive) in test [11]. The GI50 in test [12] is 30 µM (inactive); in test [14] it was 15.9 µM (inactive); in test [15], > 100 µM (inactive); in test [16] it was 62.7 µM (inactive); in [17] it was 18.6 µM (inactive); in test [18] it was 18.6 µM (inactive). Besides, in test [19], the GI50 was > 100 µM (inactive).
On to `C=CC(C)(C)C(=C)C(=O)Nc1ccccc1I`, for which the GI50 in test [1] was 2.29 µM (inactive); in test [2] it was > 100 µM (inactive); in [3] it was > 100 µM (inactive); in [4], 19.3 µM (inactive); in [5] it was > 100 µM (inactive); in test [6], > 100 µM (inactive). In addition, the GI50 is > 100 µM (inactive) in test [20]; 73.6 µM (inactive) in test [7]; > 100 µM (inactive) in [8]; > 100 µM (inactive) in [9]; > 100 µM (inactive) in test [10]; 98.4 µM (inactive) in [11]. For the same compound, the GI50 in test [13], in [14], in test [15], in test [16], in test [17] and in test [18] was > 100 µM (inactive) throughout. Besides, the GI50 in test [19] was > 100 µM (inactive).
